Reference: paper PMC9571594, “Development of Semisynthetic Apoptosis-Inducing Agents Based on Natural Phenolic Acids Scaffold: Design, Synthesis and In-Vitro Biological Evaluation” (Molecules, 2022)
Converted amounts (≈) assume the structure as drawn. Read-outs that look alike come from different tables or passages of the source.

What was measured:
[1] = system: A549 cells; assay: MTT cell viability assay, A549; assay type: cell-based, human
Protocol: (§1) MCF-7 cells (Human breast adenocarcinoma), HepG2 (human hepatocellular carcinoma), A549 (human lung adenocarcinoma), Caco-2 (colon carcinoma), PANC-1 (human pancreatic cancer), and Vero cells (derived from normal kidney cells) were supplied by (Holding Company for Biological Products and Vaccines VACSERA; Giza, Egypt). The cells were cultured in PRMI 1640 medium (Lonza, Switzerland) supplemented with 10% fetal bovine serum (Gibco), 1% penicillin and 1% streptomycin (Sigma Aldrich, Saint Louis, MO, USA) at 37 °C under an atmosphere of 5% CO2 and 95% air.
(§2) The effect of parent compounds and their derivatives were assessed by (3-(4,5-dimethylthiazol-2-yl)-2,5diphenyl-tetrazolium bromide) MTT assay. […] After a merged sheet of cells developed, the growth media was decanted from the 96-well microtiter and refilled with different concentrations of compounds (µg/mL), and the plate was incubated at 37 °C for 48 h to minimize exposure to the dissolving agent (Supporting Information).
(§3) MTT solution (BIO BASIC CANADA INC) was prepared [5 mg/mL in phosphate buffered saline (PBS)], added to each well and incubated for 4 h, then after removing the media, 200 μL of DMSO was added to each well to solubilize the formazan crystals and the optical density of the formazan product was measured at 560 nm using microplate reader (mindray, MR-96A). The results were calculated as the mean of the three independent experiments. […]
(§4) Determination of sample cytotoxicity on cells (MTT protocol) […]
(§5) well) and incubated at 37°C for 24 hours to develop a complete monolayer sheet.
(§6) 2- Growth medium was decanted from 96 well micro titer plates after confluent sheet of cells were formed, cell monolayer was washed twice with wash media.
(§7) 3- two-fold dilutions of tested sample was made in RPMI medium with 2% serum […]
(§8) 4- 0.1 ml of each dilution was tested in different wells leaving 3 wells as control, receiving only maintenance medium.
(§9) 5- Plate was incubated at 37°C and examined. Cells were checked for any physical signs of toxicity, e.g. partial or complete loss of the monolayer, rounding, shrinkage, […]
(§10) 6- MTT solution was prepared (5mg/ml in PBS) (BIO BASIC CANADA INC).
(§11) 8- 20ul MTT solution were added to each well. Place on a shaking table, 150rpm for 5 minutes, to thoroughly mix the MTT into the media.
(§12) 10) Dump off the media. (dry plate on paper towels to remove residue if necessary. […] 9 ش - ايلعلا هبضهلا - مطقملا / ىسيئرلا لمعملا […]

[2] = system: PANC-1 cells; assay: MTT cell viability assay, PANC-1; assay type: cell-based, human
Protocol: as §1, §2, §3, §4, §5, §6, §7, §8, §9, §10, §11, §12

[3] = MTT cell viability assay on normal Vero cells (selectivity); assay type: cell-based; settings: African green monkey, Vero cells (normal kidney cells)
Protocol: (§13) MCF-7 cells (Human breast adenocarcinoma), HepG2 (human hepatocellular carcinoma), A549 (human lung adenocarcinoma), Caco-2 (colon carcinoma), PANC-1 (human pancreatic cancer), and Vero cells (derived from normal kidney cells) were supplied by (Holding Company for Biological Products and Vaccines VACSERA; Giza, Egypt).
as §2, §3, §4, §5, §6, §7, §8, §9, §10, §11
(§14) 10) Dump off the media. (dry plate on paper towels to remove residue if necessary. […]

[4] = system: Vero normal cell line; assay: as above; assay type: cell-based
Protocol: as §13, §2, §3, §4, §5, §6, §7, §8, §9, §10, §11, §14

[5] = system: HepG2 cells; assay: MTT cell viability assay, HepG2; assay type: cell-based, human
Protocol: as §1, §2, §3, §4, §5, §6, §7, §8, §9, §10, §11, §12

[6] = system: Caco-2 cells; assay: Annexin V-FITC/PI apoptosis assay by flow cytometry; assay type: cell-based; parameters: key: % of cells; settings: annexin-V FITC/PI staining, 24h
Protocol: In order to determine the percentage of viable, apoptotic and necrotic cells after treatment with our compounds, double-staining with fluorescein isothiocyanate (FITC) and PI was performed. Annexin V-FITC Apoptosis Detection Kit (BioVision, CA, USA) was used. Briefly, cultured Caco-2 were treated with the tested compounds or DMSO for 24h. Cells were then collected by centrifugation at 2000 rpm for 5 min, and the pellet was washed with PBS then centrifuged again at 2000 rpm for 5 min then resuspended in 500μL of the kit’s binding buffer before adding the Annexin V-FITC and PI. The cells were then incubated at room temperature in the dark for 5 min. Annexin V-FITC binding was measured using FACS Calibur flow cytometer (BD biosciences, USA) (Ex = 488 nm, Em = 533 nm, FL1 filter for annexin and FL2 filter for PI).

[7] = system: MCF-7 cells; assay: MTT cell viability assay, MCF-7; assay type: cell-based, Human; settings: Homo sapiens, MCF7; MTT, 48 h, average of triplicates; read-out: IC50 (μM) ± SD MCF-7
Protocol: as §1, §2, §3, §4, §5, §6, §7, §8, §9, §10, §11, §12

O=C(O)/C=C/c1ccc(O)c(O)c1 [Compound 1, Caffeic acid]
Toxicity % ([1]; A549, 15.625 ug/ml): 0.7435% | Toxicity % ([1]; A549, 31.25 ug/ml): 0.1239% | Toxicity % ([1]; A549, 62.5 ug/ml): 0.9913% | Toxicity % ([1]; A549, 125 ug/ml): 3.841% | Toxicity % ([1]; A549, 250 ug/ml): 52.91% | Toxicity % ([1]; A549, 500 ug/ml): 78.56% | IC50 ([1]; Homo sapiens, A549, MTT, 48 h, average of triplicates, read-out: IC50 (μM) ± SD A549): 1630 µM | viability at 15.625 µg/mL ([1]; Homo sapiens, A549, 15.625 ug/ml): 99.3% | viability at 31.25 µg/mL ([1]; Homo sapiens, A549, 31.25 ug/ml): 99.9% | viability at 62.5 µg/mL ([1]; Homo sapiens, A549, 62.5 ug/ml): 99% | viability at 125 µg/mL ([1]; Homo sapiens, A549, 125 ug/ml): 96.2% | viability at 250 µg/mL ([1]; Homo sapiens, A549, 250 ug/ml): 47.1% | viability at 500 µg/mL ([1]; Homo sapiens, A549, 500 ug/ml): 21.4% | IC50 ([1]; Homo sapiens, A549, MTT report T-4-019-5, Conc. ug/ml, read-out: IC50): 317 µg/mL | IC50 ([2]; Homo sapiens, PANC-1, MTT, 48 h, average of triplicates, read-out: IC50 (μM) ± SD PANC-1): 1290 µM | viability at 15.625 µg/mL ([2]; Homo sapiens, PANC-1, Panc1, 15.625 ug/ml): 100% | viability at 31.25 µg/mL ([2]; Homo sapiens, PANC-1, Panc1, 31.25 ug/ml): 101% | viability at 62.5 µg/mL ([2]; Homo sapiens, PANC-1, Panc1, 62.5 ug/ml): 99.8% | viability at 125 µg/mL ([2]; Homo sapiens, PANC-1, Panc1, 125 ug/ml): 91.8% | viability at 250 µg/mL ([2]; Homo sapiens, PANC-1, Panc1, 250 ug/ml): 48.3% | viability at 500 µg/mL ([2]; Homo sapiens, PANC-1, Panc1, 500 ug/ml): 29.7% | IC50 ([2]; Homo sapiens, PANC-1, Panc1, MTT report T-4-019-5, Conc. ug/ml, read-out: IC50): 251 µg/mL | Toxicity % ([2]; Panc1, 15.625 ug/ml): 0% | Toxicity % ([2]; Panc1, 31.25 ug/ml): 0% | Toxicity % ([2]; Panc1, 62.5 ug/ml): 0.1812% | Toxicity % ([2]; Panc1, 125 ug/ml): 8.243% | Toxicity % ([2]; Panc1, 250 ug/ml): 51.72% | Toxicity % ([2]; Panc1, 500 ug/ml): 70.29% | viability at 48 h, 15.625 ug/ml ([3]; 15.625 ug/ml): 99.1% | viability at 48 h, 31.25 ug/ml ([3]; 31.25 ug/ml): 99% | viability at 48 h, 62.5 ug/ml ([3]; 62.5 ug/ml): 99.3% | viability at 48 h, 125 ug/ml ([3]; 125 ug/ml): 63.6% | viability at 48 h, 250 ug/ml ([3]; 250 ug/ml): 22.9% | viability at 48 h, 500 ug/ml ([3]; 500 ug/ml): 18.1% | Toxicity % ([4]; 15.625 ug/ml): 0.8516% | Toxicity % ([4]; 31.25 ug/ml): 0.9732% | Toxicity % ([4]; 62.5 ug/ml): 0.7299% | Toxicity % ([4]; 125 ug/ml): 36.37% | Toxicity % ([4]; 250 ug/ml): 77.13% | Toxicity % ([4]; 500 ug/ml): 81.87% | IC50 ([4]; Chlorocebus sabaeus, MTT report T-4-019-5, Conc. ug/ml): 176 µg/mL (≈ 977 µM) | Toxicity % ([5]; HepG2, 15.625 ug/ml): 0.202% | Toxicity % ([5]; HepG2, 31.25 ug/ml): 0.101% | Toxicity % ([5]; HepG2, 62.5 ug/ml): 0.5051% | Toxicity % ([5]; HepG2, 125 ug/ml): 13.64% | Toxicity % ([5]; HepG2, 250 ug/ml): 72.12% | Toxicity % ([5]; HepG2, 500 ug/ml): 83.94% | IC50 ([5]; Homo sapiens, HepG2, MTT, 48 h, average of triplicates, read-out: IC50 (μM) ± SD HepG2): 1030 µM | viability at 15.625 µg/mL ([5]; Homo sapiens, HepG2, 15.625 ug/ml): 99.8% | viability at 31.25 µg/mL ([5]; Homo sapiens, HepG2, 31.25 ug/ml): 99.9% | viability at 62.5 µg/mL ([5]; Homo sapiens, HepG2, 62.5 ug/ml): 99.5% | viability at 125 µg/mL ([5]; Homo sapiens, HepG2, 125 ug/ml): 86.4% | viability at 250 µg/mL ([5]; Homo sapiens, HepG2, 250 ug/ml): 27.9% | viability at 500 µg/mL ([5]; Homo sapiens, HepG2, 500 ug/ml): 16.1% | IC50 ([5]; Homo sapiens, HepG2, MTT report T-4-019-5, Conc. ug/ml, read-out: IC50): 201 µg/mL | Apoptosis Total [6]: 11.31 | Early Apoptosis [6]: 3.41 | Late Apoptosis [6]: 5.98 | Necrosis [6]: 1.92 | IC50 [7]: 970 µM
